Reference: US20220362122A1, “Hair Treatment Compositions With Amine Derivatives” (ELC Management LLC, priority 2021, published 2022)
Entries after “also recorded” stand apart in the source; their conditions may differ. Like-named read-outs stand apart in the source and are kept apart here. Marks after values point to notes of the source that are not given here.

Tests used:
outer root sheath cells = assay: MultiTox-Fluor Multiplex Cytotoxicity Assay, outer root sheath cells; type: cell-based; details: for IC50: greater IC50 = less stress on the cells, unit inferred; for toxicity to the cell, comparison in words: outer root sheath cells
Method: (§1) The effects of alkalizer compositions on outer root sheath cells and on keratinocytes was evaluated. The MultiTox-Fluor Multiplex Cytotoxicity Assay (Promega Corp., Madison, Wis.) simultaneously measures two protease activities: one is a marker of cell viability, and the other is a marker of cytotoxicity. In the assays, the responses of outer root sheath cells and keratinocytes to various concentrations of alkalizers were measured, and IC50, the concentration that provokes a mid-height response (midway between the baseline response and maximal response), was determined.

keratinocytes = assay: MultiTox-Fluor Multiplex Cytotoxicity Assay, keratinocytes; type: cell-based; details: for IC50: Keratinocyte, greater IC50 = less stress on the cells, unit inferred; for toxicity to the cell, comparison in words: keratinocytes
Method: as §1

[1] = pH of alkalizer composition
[2] = alkalizer composition
[3] = for L Value: single alkalizer composition + volume 40 oxidizer developer on hair tresses, 37° C., 45 minutes, virgin 19; for Lifting level normalized to NH3•H2O / Relative lifting level in percentage (LVirgin-LAlkalizer)/(LVirgin-LNaOH) / ΔL (change in color lifting) LVirgin-LAlkalizer: single alkalizer compositions, Table 5; for lifting of natural hair color, comparison in words: single alkalizer/oxidizer mixtures
[4] = alkalizer composition; 22° C., T-F spindle, 6 rpm
[5] = alkalizer composition: Table 2 base + alkalizer, same molar percentage
[6] = Table 12 AEPD-Tris series, mole ratio AEPD/Tris, virgin hair 20.4
[7] = Table 13 Serinol-Tris series, mole ratio Serinol/Tris, virgin hair 20.4

| Compound | toxicity to the cell, comparison in words (outer root sheath cells) | % Relative damage level compared to NaOH (TVirgin-TAlkalizer)/(TVirgin-TNaOH) (keratin in hair) | Damage level normalized to NH3•H2O (keratin in hair) | hair damage / denaturation temperature, comparison in words (keratin in hair) | ΔT (change in denaturation temperature) TVirgin-TAlkalizer (keratin in hair) | toxicity to the cell, comparison in words (keratinocytes) | pH [1, 5] | Alkalinity [2] | L Value [3] | Lifting level normalized to NH3•H2O [3] | Relative lifting level in percentage (LVirgin-LAlkalizer)/(LVirgin-LNaOH) [3] | ΔL (change in color lifting) LVirgin-LAlkalizer [3] | lifting of natural hair color, comparison in words [3] | Viscosity (cP × 10^5) [4] | pH [1] | also measured |
| --- | --- | --- | --- | --- | --- | --- | --- | --- | --- | --- | --- | --- | --- | --- | --- | --- |
| NCC(O)CO (centres unmarked) [Isoserinol, 3-Amino-1,2-propanediol] | significantly less toxic than ammonium hydroxide | 40.80% | 2.09 | performed significantly better than MEA and AMP | 5.83 | significantly less toxic than ammonium hydroxide | 10.56 | 2.45 mL/g | 36 | 1.13 | 96.59% | −17 | significantly better than AMP and about the same as MEA, at lifting hair color; also recorded: better at lifting natural hair color than the ammonium hydroxide/oxidizer mixture; also recorded: about the same effectiveness as MEA, and significantly better effectiveness than AMP | 3.75 cP × 10^5 | – | IC50 (outer root sheath cells): 56.3 mM; IC50 (keratinocytes): 97 mM |
| CC(N)(CO)CO [AMPD, 2-Amino-2-methyl-1,3-propanediol] | significantly less toxic than ammonium hydroxide | – | 1.63 | – | 4.54 | significantly less toxic than ammonium hydroxide | – | 2.49 mL/g | – | 0.87 | – | −13 | almost as good as MEA and ammonium hydroxide | 3.84 cP × 10^5 | 10.28 | – |
| NC(CO)(CO)CO [Tris, Tromethamine] | – | – | 0.51 | also performed well | 1.42 | – | 9.6 | 2.43 mL/g | 27 | 0.53 | – | −8 | as good as tertiary alkalizer DMAP | 4.17 cP × 10^5 | – | L* value ([3]; Table 9 Tris-NH3 series, mole ratio Tris/NH3, virgin hair 20.0): 28; L* value ([3]; Table 11 AMPD-Tris series, mole ratio AMPD/Tris, virgin hair 20.3): 28; L* value [3, 6]: 28.5; L* value [3, 7]: 28.5; L* value / color lifting in binary combinations, in words ([3]; binary combinations of alkalizers): tends to reduce the effectiveness of color lifting |
| NCCO [MEA, monoethanolamine, reference compound] | more toxic to the cell than ammonium hydroxide | – | 3.03 | – | 8.46 | more toxic to the cell than ammonium hydroxide | 10.85 | 2.35 mL/g | 36 | – | – | −17 | – | 3.02 cP × 10^5 | – | IC50 (outer root sheath cells): 21.4 mM; IC50 (keratinocytes): 23 mM |
| OCCNCCO [DEA, Diethanolamine] | – | – | 0.64 | less damaging to hair than the ammonium hydroxide composition | 1.79 | – | – | 2.57 mL/g | – | 0.77 | – | −11.5 | – | 5.09 cP × 10^5 | 10.35 | – |
| CCC(N)(CO)CO [AEPD, 2-Amino-2-ethyl-1,3-propanediol] | significantly less toxic than ammonium hydroxide | 29.18% | 1.49 | performed significantly better than MEA and AMP | 4.17 | significantly less toxic than ammonium hydroxide | 10.33 | 2.40 mL/g | 30 | 0.73 | 62.50% | −11 | not quite as good as secondary amine alkalizer, DEA, but close | 4.47 cP × 10^5 | – | IC50 (outer root sheath cells): 87 mM; denaturation temperature in binary combinations, in words (keratin in hair): lowered the denaturation temperature, but only slightly; L* value ([3]; Table 7 AEPD-NH3 series, mole ratio AEPD/NH3, virgin hair 20.2): 30; L* value [3, 6]: 30.4 |
| CC(C)(N)CO [AMP, aminomethyl propanol, reference compound] | more toxic to the cell than ammonium hydroxide | 60.11% | 3.08 | – | 8.59 | more toxic to the cell than ammonium hydroxide | 10.91 | 2.32 mL/g | 32.5 | 0.90 | 76.70% | −13.5 | – | 1.81 cP × 10^5 | – | – |
| 3-Amino-1-propanol [AP] | – | 83.97% | 4.30 | – | 12 | – | – | 3.10 mL/g | – | 1.20 | 102.27% | −18 | better at lifting natural hair color than the ammonium hydroxide/oxidizer mixture; also recorded: outperformed all of them | 3.26 cP × 10^5 | 11.49 | Denaturation Temperature (° C.) (keratin in hair): 138.42 °C |
| NC(CO)CO [Serinol, 2-Amino-1,3-propanediol] | – | 22.32% | 1.14 | – | 3.19 | – | 10.22 | 2.55 mL/g | 31 | 0.80 | 68.18% | −12 | performed significantly less well than ammonium hydroxide | 10.1 cP × 10^5 | – | denaturation temperature in binary combinations, in words (keratin in hair): lowered the denaturation temperature, but only slightly; L* value ([3]; Table 10 Serinol-NH3 series, mole ratio Serinol/NH3, virgin hair 19.9): 31.2; L* value [3, 7]: 31.2 |
| [Na+].[OH-] [NaOH, reference compound] | – | 100% | 5.12 | – | 14.29 | – | – | – | 36.6* | 1.17 | 100% | −17.6 | – | – | – | – |
| Ammonium hydroxide [reference compound] | – | – | 1 | – | 2.79 | – | – | – | – | – | – | – | – | – | 10.72 | – |
